# Source: ChEMBL document CHEMBL4665675 (J Med Chem, 2020)
# Columns and labels:
# [1] = Antiproliferative activity against human KB-8511 cells incubated for 96 hrs by spectrophotometric method; type: functional, cell-based; details: KB-ChR-8-5-11, 96 h
# KB 3-1 = assay: Antiproliferative activity against human KB-31 cells incubated for 96 hrs by spectrophotometric method; type: functional, cell-based; details: KB 3-1, 96 h
# Bos taurus = species on record: Bos taurus; assay: Inhibition of bovine brain tubulin polymerization preincubated for 15 mins followed by GTP addition and measured for 30 mins by spectrophotometric method
# PANC-1 [2] = assay: Cytotoxicity against human PANC1 cells incubated for 72 hrs by MTT assay; type: functional, cell-based; details: PANC-1, 72 h
# HaCaT = assay: Cytotoxicity against human HaCaT cells incubated for 72 hrs by MTT assay; type: functional, cell-based
# HeLa = assay: Cytotoxicity against human HeLa cells after 24 to 72 hrs by Cell Titer Blue assay; type: cell-based
# [3] = molecular target: T1, carboxylesterase 1 (CES1) (Homo sapiens, UniProt P23141); assay: Substrate activity at human carboxylesterase 1 expressed in baculovirus infected Sf9 insect cells assessed as enzyme-catalysed compound cleavage incubated for 2 hrs by HPLC analysis; type: ADME; details: read-out: Activity
# T1 sequence (P23141 whole entry): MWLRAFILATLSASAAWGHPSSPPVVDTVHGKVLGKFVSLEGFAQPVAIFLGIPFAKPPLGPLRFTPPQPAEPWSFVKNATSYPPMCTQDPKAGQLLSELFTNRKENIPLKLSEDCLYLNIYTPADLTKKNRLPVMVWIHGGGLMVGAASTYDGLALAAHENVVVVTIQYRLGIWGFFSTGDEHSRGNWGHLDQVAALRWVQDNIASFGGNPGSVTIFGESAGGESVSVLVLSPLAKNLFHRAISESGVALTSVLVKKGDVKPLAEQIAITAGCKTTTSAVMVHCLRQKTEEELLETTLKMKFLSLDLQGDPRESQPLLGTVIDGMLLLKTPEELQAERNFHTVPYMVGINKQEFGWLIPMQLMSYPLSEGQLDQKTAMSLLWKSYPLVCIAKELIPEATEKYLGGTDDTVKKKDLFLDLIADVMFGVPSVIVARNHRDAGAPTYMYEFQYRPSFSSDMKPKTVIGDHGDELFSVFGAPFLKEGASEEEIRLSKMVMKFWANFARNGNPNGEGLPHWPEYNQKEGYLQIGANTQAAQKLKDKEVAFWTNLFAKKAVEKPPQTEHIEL
# Tubulin = assay: Inhibition of tubulin polymerization (unknown origin); type: protein-complex assay, Homo sapiens
# SF-268 [4] = assay: Cytotoxicity against human SF-268 cells by cell titer-glow assay; type: functional, cell-based
# HCT-116 [5] = assay: Cytotoxicity against human HCT-116 cells by cell titer-glow assay; type: functional, cell-based
# SF-268 [6] = assay: Cytotoxicity against human SF-268 cells by calcein AM reagent based fluorescence method; type: functional, cell-based
# HCT-116 [7] = assay: Cytotoxicity against human HCT-116 cells by calcein AM reagent based fluorescence method; type: functional, cell-based
# [8] = Inhibition of calf brain tubulin by turbidimetry; parameters: species or system Bos taurus
# PANC-1 [9] = assay: Antiproliferative activity against human PANC1 cells incubated for 72 hrs by WST assay; type: functional, cell-based; details: PANC-1, 72 h
# DU-145 = assay: Antiproliferative activity against human DU145 cells incubated for 72 hrs by WST assay; type: functional, cell-based; details: DU-145, 72 h
# A2780 = assay: Cytotoxicity against human A2780 cells; type: functional, cell-based
# Bel-7402 = assay: Cytotoxicity against human BEL7402 cells; type: functional, cell-based
# MCF7 = assay: Cytotoxicity against human MCF7 cells; type: functional, cell-based
# A549 = assay: Cytotoxicity against human A549 cells; type: functional, cell-based
# BJAB = assay: Cytotoxicity against human BJAB cells; type: functional, cell-based
smiles,measurement,setting,value
COc1c(CNC(C)=O)c2c(c(OC)c1OC)-c1ccc(OC)c(=O)cc1[C@@H](NC(C)=O)CC2,IC50,[1],> 1 µM
same,IC50,KB 3-1,> 1 µM
same,inhibition,Bos taurus,0%
CCCCCCCCCCCCCCCC(=O)OCC(COP(=O)([O-])OCC[N+](C)(C)C)OC(=O)CCCCCCCCCc1n[nH]c(CC(=O)OCC(=O)N[C@H]2CCc3cc(OC)c(OC)c(OC)c3-c3ccc(C(=O)OC)cc32)n1 (stereo not given in full),IC50,PANC-1 [2],0.4 µM
same,IC50,HaCaT,0.4 µM
COc1cc2c(c(OC)c1OC)-c1ccc(NCCCCCC(=O)N[C@@H](CC(C)C)C(=O)OC3CCCC3)c(=O)cc1[C@@H](NC(C)=O)CC2,IC50,HeLa,4.62 µM
same,metabolised at 2 h,[3],36%
COc1c(CO)c2c(c(OC)c1OC)-c1ccc(OC)c(=O)cc1[C@@H](NC(C)=O)CC2,IC50,[1],> 1 µM
same,inhibition,Bos taurus,100%
COc1cc2c(c(OC)c1OC)-c1ccc(OC)c(=O)cc1C(=O)CC2,IC50,Tubulin,1.1 µM
COc1cc2c(c(OC)c1OC)-c1ccc(OC)c(=O)cc1[C@@H](NC(=O)CN(OC)C1C[C@@H](O)[C@@H](O)[C@@H](CO)O1)CC2 (stereo not given in full),IC50,SF-268 [4],0.3 µM
same,IC50,HCT-116 [5],0.3 µM
same,IC50,SF-268 [6],0.3 µM
same,IC50,HCT-116 [7],0.3 µM
COc1cc2c(c(OC)c1OC)-c1ccc(OC)c(=O)cc1[C@@H](NC(=O)CN(OC)C1C[C@@H](O)[C@@H](O)CO1)CC2 (stereo not given in full),IC50,SF-268 [4],0.3 µM
same,IC50,HCT-116 [5],0.3 µM
same,IC50,SF-268 [6],0.3 µM
same,IC50,HCT-116 [7],0.3 µM
COc1ccc2c(c1)C(=O)CCc1cc(OC)c(OC)c(OC)c1-2,IC50,[8],0.43 µM
COc1cc2c(c(OC)c1OC)-c1ccc(OC)c(=O)cc1[C@@H](NC(=O)CN(OC)C1O[C@H](C(C)=O)[C@H](O)[C@H](O)[C@H]1O)CC2 (stereo not given in full),IC50,SF-268 [4],0.3 µM
same,IC50,HCT-116 [5],0.3 µM
same,IC50,SF-268 [6],0.3 µM
same,IC50,HCT-116 [7],0.3 µM
COc1cc2c(c(OC)c1OC)-c1ccc(NCCCCCCCC(=O)N[C@@H](CC(C)C)C(=O)OC3CCCC3)c(=O)cc1[C@@H](NC(C)=O)CC2,IC50,HeLa,4.93 µM
same,metabolised at 2 h,[3],76%
COc1cc2c(c(OC)c1OC)-c1ccc(F)cc1C(NC(C)=O)CC2 (stereo not given),IC50,PANC-1 [9],7.9 µM
same,IC50,DU-145,0.76 µM
CCOC(=O)NCc1c2c(c(OC)c(OC)c1OC)-c1ccc(OC)c(=O)cc1[C@@H](NC(C)=O)CC2,IC50,[1],> 1 µM
same,IC50,KB 3-1,> 1 µM
same,inhibition,Bos taurus,0%
COc1ccc2c(c1)-c1nc(N)ncc1Cc1cc(OC)c(OC)c(OC)c1-2,IC50,[8],0.67 µM
COc1ccc2c(c1)/C(=N\O)CCc1cc(OC)c(OC)c(OC)c1-2,IC50,[8],0.33 µM
COC(=O)c1ccc2c(c1)[C@@H](NC(=O)CO)CCc1cc(OC)c(OC)c(OC)c1-2,IC50,PANC-1 [2],0.08 µM
same,IC50,HaCaT,0.016 µM
COc1cc2c(c(OC)c1OC)-c1cc(NC(=O)c3ccc(CN[C@@H](CC(C)C)C(=O)OC4CCCC4)cc3)ccc1[C@@H](NC(C)=O)CC2,IC50,HeLa,1.48 µM
same,metabolised at 2 h,[3],33%
COc1cc2c(c(OC)c1OC)-c1ccc(OC)c(=O)cc1[C@@H](NC(=O)CN(OC)C1C[C@H](O)[C@H](O)CO1)CC2 (stereo not given in full),IC50,SF-268 [4],0.3 µM
same,IC50,HCT-116 [5],0.3 µM
same,IC50,SF-268 [6],0.3 µM
same,IC50,HCT-116 [7],0.3 µM
COc1cc2c(c(OC)c1OC)-c1ccc(OC)c(=O)cc1[C@@H](NC(=O)CN(OC)C1C[C@H](O)[C@H](O)[C@@H](C)O1)CC2 (stereo not given in full),IC50,SF-268 [4],0.3 µM
same,IC50,HCT-116 [5],0.3 µM
same,IC50,SF-268 [6],0.3 µM
same,IC50,HCT-116 [7],0.3 µM
COc1cc2c(c(OC)c1OC)-c1ccc(OC)c(=O)cc1CC=C2,IC50,Tubulin,1.6 µM
COc1cc2c(c(OC)c1OC)-c1ccc(O)cc1[C@@H](NC(C)=O)CC2 [N-ACETYLCOLCHINOL],IC50,PANC-1 [9],4.4 µM
same,IC50,DU-145,0.72 µM
COc1ccc2c(c1)[C@@H](NC(C)=O)CCc1cc(OC)c(OC)c(OC)c1-2,IC50,PANC-1 [9],0.08 µM
same,IC50,[8],0.3 µM
same,IC50,DU-145,0.78 µM
COc1ccc2c(c1)NC(=O)CCc1cc(OC)c(OC)c(OC)c1-2,IC50,[8],21 µM
COc1cc2c(c(OC)c1OC)-c1ccc(NCCCC(=O)N[C@H](C(=O)OC3CCCC3)c3ccccc3)c(=O)cc1[C@@H](NC(C)=O)CC2,IC50,HeLa,1.24 µM
same,metabolised at 2 h,[3],0%
C=C1COc2cc3c(cc21)-c1c(cc(OC)c(OC)c1OC)CC[C@@H]3NC(=O)COC(=O)Cc1nc(CCCCCCCCCC(=O)OC(COC(=O)CCCCCCCCCCCCCCC)COP(=O)([O-])OCC[N+](C)(C)C)n[nH]1 (stereo not given in full),IC50,PANC-1 [2],0.4 µM
same,IC50,HaCaT,0.4 µM
COc1cc2c(c(OC)c1OC)-c1ccc(OC)c(=O)cc1[C@@H](NC(=O)CN(OC)C1O[C@@H]3OC(=O)[C@@H](O)[C@@H]3[C@@H]1O)CC2 (stereo not given in full),IC50,SF-268 [4],0.3 µM
same,IC50,HCT-116 [5],0.3 µM
same,IC50,SF-268 [6],0.3 µM
same,IC50,HCT-116 [7],0.3 µM
COc1c(CNC(=O)c2ccccc2)c2c(c(OC)c1OC)-c1ccc(OC)c(=O)cc1[C@@H](NC(C)=O)CC2,IC50,[1],> 1 µM
same,IC50,KB 3-1,> 1 µM
same,inhibition,Bos taurus,0%
COc1cc2c(c(OC)c1OC)-c1ccc(NCCOC(=O)CCC(=O)OCCO[N+](=O)[O-])c(=O)cc1[C@@H](NC(C)=O)CC2,IC50,A2780,0.02 µM
same,IC50,Bel-7402,0.04 µM
same,IC50,MCF7,0.04 µM
same,IC50,A549,0.04 µM
COc1ccc2c(c1)N(C(C)=O)CCCc1cc(OC)c(OC)c(OC)c1-2,IC50,[8],2.3 µM
COc1c(COC(C)=O)c2c(c(OC)c1OC)-c1ccc(OC)c(=O)cc1[C@@H](NC(C)=O)CC2,IC50,[1],> 1 µM
same,IC50,KB 3-1,> 1 µM
same,inhibition,Bos taurus,100%
COc1cc2c(c(OC)c1OC)-c1ccc(NCCCC(=O)N[C@@H](CC(C)C)C(=O)OC3CCCC3)c(=O)cc1[C@@H](NC(C)=O)CC2,IC50,HeLa,1.19 µM
same,metabolised at 2 h,[3],18%
COc1cc2c(c(OC)c1OC)-c1ccc(NCCC(O)C(=O)N[C@@H](CC(C)C)C(=O)OC3CCCC3)c(=O)cc1[C@@H](NC(C)=O)CC2 (stereo not given in full),IC50,HeLa,0.23 µM
same,metabolised at 2 h,[3],13%
COc1ccc2c(c1)-c1n[nH]cc1Cc1cc(OC)c(OC)c(OC)c1-2,IC50,[8],0.47 µM
COC(=O)NC1CCc2cc(OC)c(OC)c(OC)c2-c2ccc(F)cc21 (stereo not given),IC50,PANC-1 [9],7 µM
same,IC50,DU-145,1.4 µM
COc1c(CN(C)C(C)=O)c2c(c(OC)c1OC)-c1ccc(OC)c(=O)cc1[C@@H](NC(C)=O)CC2,IC50,[1],> 1 µM
same,IC50,KB 3-1,> 1 µM
same,inhibition,Bos taurus,0%
COc1cc2c(c(OC)c1OC)-c1ccc(NCCC(O)C(=O)N[C@H](C(=O)OC3CCCC3)c3ccccc3)c(=O)cc1[C@@H](NC(C)=O)CC2 (stereo not given in full),IC50,HeLa,0.22 µM
same,metabolised at 2 h,[3],0%
C=C1COc2cc3c(cc21)-c1c(cc(OC)c(OC)c1OC)CC[C@@H]3NC(=O)CO,IC50,PANC-1 [2],0.016 µM
same,IC50,HaCaT,0.003 µM
CCCCCCCCCCCC(=O)OCc1cn([C@H]2CCc3cc(OC)c(OC)c(OC)c3-c3ccc(OC)c(=O)cc32)nn1,IC50,BJAB,0.004 µM
COc1cc2c(c(OC)c1OC)-c1ccc(OC)c(=O)cc1[C@@H](n1cc(CCC(=O)Cc3ccc4oc(=O)ccc4c3)nn1)CC2,IC50,BJAB,0.06 µM
COc1cc2c(c(OC)c1OC)-c1ccc(NCCOC(=O)CCC(=O)OCCCCCCO[N+](=O)[O-])c(=O)cc1[C@@H](NC(C)=O)CC2,IC50,A2780,0.02 µM
same,IC50,Bel-7402,0.04 µM
same,IC50,MCF7,0.04 µM
same,IC50,A549,0.04 µM
COc1cc2c(c(OC)c1OC)-c1ccc(NCCOC(=O)CCC(=O)OCCCO[N+](=O)[O-])c(=O)cc1[C@@H](NC(C)=O)CC2,IC50,A2780,0.02 µM
same,IC50,Bel-7402,0.04 µM
same,IC50,MCF7,0.04 µM
same,IC50,A549,0.04 µM
COc1cc2c(c(OC)c1OC)-c1ccc(OC)c(=O)cc1CCC2,IC50,Tubulin,2.6 µM
